Entries after “also recorded” stand apart in the source; their conditions may differ.
Experiments:
[1] = test system: Beas-2b human lung epithelial cells; experiment: CCK8 assay, normal lung epithelial cells; type: cell-based; design: dose or concentration left out as unconfirmed; conditions: 48 hours
pulmonary nodules = experiment: Ultrasound and CT imaging, mouse model of pulmonary nodules; type: in vivo, C57 mice; conditions: 200 mg/kg intravenous, 4 weeks after model establishment
Description: (§1) Fifty micrograms of SodA peptide ([…]) and 0.25 mL of incomplete Freund's adjuvant were mixed and subcutaneously injected into the backs of C57 mice. Two weeks later, 50 μg of SodA peptide and 6000 agarose 4B beads dissolved in 0.2 mL PBS were covalently coupled and injected into the tail vein of the same C57 mice to construct a mouse model of pulmonary nodules. Additionally, 3×10^6 A549-Luci cells were injected into the tail vein of nude mice to construct a mouse model of pulmonary metastatic tumors. Some mice underwent intravenous injection of the targeting peptide (200 mg/kg) to induce calcification; simultaneous ultrasound and CT scans of normal lung cancer, calcified lung cancer, and pulmonary nodules were performed at 4 weeks after model establishment.

[2] = test system: human non-small cell lung cancer cells (lines A549, H460, and H1299); experiment: CCK8 assay, lung cancer cells; type: cell-based; design: dose or concentration left out as unconfirmed; conditions: 48 hours
Description: CCK8 assays were performed to determine the killing effect of targeting peptide-induced calcification of lung cancer cells.

A549-Luci cells [3] = experiment: Mouse model of metastatic lung tumors, small animal in vivo imaging; design: species or system nude mice; conditions: 200 mg/kg tail vein, compared with the control group
Description: To construct a mouse model of metastatic lung tumors, 3×10^6 A549-Luci cells
were injected into the tail vein of nude mice, followed by injection of targeting peptide (CiP; 200 mg/kg) through the tail vein. Control mice were injected with PBS, 4 mg/kg adriamycin (Dox), and a control peptide ([…], targeting peptide, TP) at the same concentration as the CiP peptide; this experiment investigated whether CiP targeting peptide-induced calcification of A549 cells could inhibit lung cancer growth and metastasis. Tumorigenesis was monitored using a small animal in vivo imaging system.
The above experiments were repeated using the E6[…], E10[…], E16[…], and E30[…] peptides.

A549-Luci cells [4] = experiment: Ultrasound and CT imaging of calcified lung cancer, mouse model of pulmonary metastatic tumors; type: in vivo, nude mice; conditions: 200 mg/kg intravenous, 4 weeks after model establishment
Description: as §1

[5] = test system: human non-small cell lung cancer cells (lines A549, H460, and H1299); experiment: Flow cytometry of cell surface-bound FITC-modified targeting peptide, lung cancer cells; type: binding; conditions: 100 μg/mL FITC-modified peptide, 30 min, Ca2+ up to 2.75 mM, phosphate up to 1.61 mM
Description: (§2) The free amino groups of aspartic acid residues in the targeting peptide were reacted with fluorescein isothiocyanate (FITC) in phosphate-buffered saline (PBS) solution for 12 hours, then dialyzed in dialysis bags for 5 days and lyophilized to obtain FITC-modified targeting peptide molecules.

lung epithelial cells = experiment: Electron microscopy / EDX elemental scan of cell surface calcification, lung epithelial cells; type: cell-based, human
Excerpt: (§3) Subsequently, they were subjected to electron microscopy to detect calcification on the cell surface.

[6] = test system: Beas-2b human lung epithelial cells, and human umbilical vein endothelial cells (HUVECs); experiment: Flow cytometry of cell surface-bound FITC-modified targeting peptide, normal cells; type: binding; conditions: 100 μg/mL FITC-modified peptide, 30 min
Description: as §2

[7] = test system: A549 human non-small cell lung cancer cells; experiment: Electron microscopy / EDX elemental scan of cell surface calcification, lung cancer cells; type: cell-based; conditions: 1 mg/mL, 48 hours, Ca2+ up to 2.75 mM, phosphate up to 1.61 mM
Excerpt: as §3

[8] = systemic FA administration; cited from earlier work

With E24 TDSILRSYDWTY [targeting peptide] the “toxic effects on normal lung epithelial cells” value [1] was “without significant toxic effects on normal lung epithelial cells”, the “identification of pulmonary nodules by imaging” value (pulmonary nodules) was “could not be clearly identified by imaging” and the “proliferative activity / killing effect” value [2] was “selectively inhibited the proliferative activities of various lung cancer cells”. For the same compound, the “growth (and metastasis) of A549 lung cancer cells in vivo” value (shortened to “growth (and metastasis)”) (A549-Luci cells [3]) was “effectively inhibited the growth and metastasis of lung cancer”, the “growth (and metastasis)” value (A549-Luci cells [3]; listed as CiP targeting peptide) was “significantly inhibited the growth of A549 cells” and the “identification of calcified lung cancer on ultrasound” value (A549-Luci cells [4]) was “evident as high-density calcified foci on ultrasound; also recorded: could be clearly identified on ultrasound”. The “visualisation of calcified lung cancer on CT” value (A549-Luci cells [4]) was “revealed a clear boundary on CT; also recorded: could be visualized on CT”, the “binding of targeting peptide to cell surface” value [5] was “selectively bound to the surface of lung cancer cells” and the “calcification on the cell surface (EDX calcium and phosphorus)” value (lung epithelial cells) was “without significantly affecting normal lung epithelial cells; also recorded: less deposition of calcium and phosphorus elements”. The “binding of targeting peptide to cell surface” value [6] was “did not bind to normal epithelial cells; also recorded: weakly bound to normal cells”, the “calcification on the cell surface (EDX calcium and phosphorus peaks)” value [7] was “significantly increased calcification peaks” and the “calcification on the cell surface (EDX calcium and phosphorus peaks)” value ([7]; listed as CiP) was “significantly increased”.

For E10TDSILRSYDWTY, the “growth (and metastasis)” value (A549-Luci cells [3]) was “significantly inhibited the growth of A549 cells”.

For Nc1nc2ncc(CNc3ccc(C(=O)N[C@@H](CCC(=O)O)C(=O)O)cc3)nc2c(=O)[nH]1 [FA, folic acid], the body weight [8] is listed as “dramatically reduces body weight”, the survival time [8] is listed as “severely decreases survival time” and the tumor growth [8] is listed as “promotes tumor growth”.

In the case of E16TDSILRSYDWTY, the “growth (and metastasis)” value (A549-Luci cells [3]) is reported as “significantly inhibited the growth of A549 cells”.

With E6TDSILRSYDWTY the “growth (and metastasis)” value (A549-Luci cells [3]) was “significantly inhibited the growth of A549 cells”.

In the case of E30TDSILRSYDWTY, the “growth (and metastasis)” value (A549-Luci cells [3]) is reported as “significantly inhibited the growth of A549 cells”.

— patent US20240058371A1, “MOLECULE FOR INDUCING SPONTANEOUS CALCIFICATION OF TUMOR CELLS AND USE THEREOF” (ZHEJIANG UNIVERSITY, priority 2020, published 2024)
